Reference: ChEMBL document CHEMBL4011620, “Design and Discovery of N-(2-Methyl-5'-morpholino-6'-((tetrahydro-2H-pyran-4-yl)oxy)-[3,3'-bipyridin]-5-yl)-3-(trifluoromethyl)benzamide (RAF709): A Potent, Selective, and Efficacious RAF Inhibitor Targeting RAS Mutant Cancers” (J Med Chem, 2017)

Columns and labels:
[1] = Apparent permeability across apical to basolateral side in human Caco2 cells at pH 7.4 by LC/MS/MS analysis; settings: Caco-2, pH 7.4
[2] = target: T1, Serine/threonine-protein kinase B-raf (Homo sapiens, UniProt P15056); experiment: Binding affinity to human BRAF (429 to 741 residues) expressed in mammalian expression system at 1 uM by kinome scan assay relative to control
T1 sequence (P15056 whole entry, the tested form may be a part): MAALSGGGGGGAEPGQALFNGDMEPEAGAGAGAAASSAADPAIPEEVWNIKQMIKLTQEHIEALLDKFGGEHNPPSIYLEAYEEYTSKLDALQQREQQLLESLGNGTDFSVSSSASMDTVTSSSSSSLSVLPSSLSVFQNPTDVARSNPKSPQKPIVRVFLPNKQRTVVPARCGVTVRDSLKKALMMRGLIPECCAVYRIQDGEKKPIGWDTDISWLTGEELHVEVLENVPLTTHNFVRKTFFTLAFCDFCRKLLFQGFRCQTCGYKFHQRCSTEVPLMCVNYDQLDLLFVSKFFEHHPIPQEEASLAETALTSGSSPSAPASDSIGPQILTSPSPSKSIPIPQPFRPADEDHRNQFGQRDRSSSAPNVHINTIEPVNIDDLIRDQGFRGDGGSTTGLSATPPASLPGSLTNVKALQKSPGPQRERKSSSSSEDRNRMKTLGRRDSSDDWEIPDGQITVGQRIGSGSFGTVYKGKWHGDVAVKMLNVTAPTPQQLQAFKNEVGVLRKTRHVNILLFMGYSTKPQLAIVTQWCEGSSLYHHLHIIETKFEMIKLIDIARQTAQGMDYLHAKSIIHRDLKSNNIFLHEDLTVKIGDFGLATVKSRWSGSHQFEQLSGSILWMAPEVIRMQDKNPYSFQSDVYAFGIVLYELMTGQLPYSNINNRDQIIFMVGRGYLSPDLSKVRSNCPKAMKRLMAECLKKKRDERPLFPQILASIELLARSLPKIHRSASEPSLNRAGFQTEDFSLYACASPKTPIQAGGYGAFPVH

[3] = system: Serine/threonine-protein kinase B-raf (Homo sapiens), P15056 [V600E]; experiment: Binding affinity to human BRAF V600E mutant (429 to 741 residues) expressed in mammalian expression system at 1 uM by kinome scan assay relative to control
Serine/threonine-protein kinase B-raf (Homo sapiens), P15056 [V600E], sequence (P15056 whole entry V600E, the tested form may be a part): as the sequence (P15056 whole entry, the tested form may be a part) above, with V600E counted along it

[4] = target: T2, Discoidin domain-containing receptor 2 (Homo sapiens) (UniProt Q16832); experiment: Binding affinity to human DDR2 (555 to 855 residues) expressed in mammalian expression system at 1 uM by kinome scan assay relative to control
T2 sequence (whole entry): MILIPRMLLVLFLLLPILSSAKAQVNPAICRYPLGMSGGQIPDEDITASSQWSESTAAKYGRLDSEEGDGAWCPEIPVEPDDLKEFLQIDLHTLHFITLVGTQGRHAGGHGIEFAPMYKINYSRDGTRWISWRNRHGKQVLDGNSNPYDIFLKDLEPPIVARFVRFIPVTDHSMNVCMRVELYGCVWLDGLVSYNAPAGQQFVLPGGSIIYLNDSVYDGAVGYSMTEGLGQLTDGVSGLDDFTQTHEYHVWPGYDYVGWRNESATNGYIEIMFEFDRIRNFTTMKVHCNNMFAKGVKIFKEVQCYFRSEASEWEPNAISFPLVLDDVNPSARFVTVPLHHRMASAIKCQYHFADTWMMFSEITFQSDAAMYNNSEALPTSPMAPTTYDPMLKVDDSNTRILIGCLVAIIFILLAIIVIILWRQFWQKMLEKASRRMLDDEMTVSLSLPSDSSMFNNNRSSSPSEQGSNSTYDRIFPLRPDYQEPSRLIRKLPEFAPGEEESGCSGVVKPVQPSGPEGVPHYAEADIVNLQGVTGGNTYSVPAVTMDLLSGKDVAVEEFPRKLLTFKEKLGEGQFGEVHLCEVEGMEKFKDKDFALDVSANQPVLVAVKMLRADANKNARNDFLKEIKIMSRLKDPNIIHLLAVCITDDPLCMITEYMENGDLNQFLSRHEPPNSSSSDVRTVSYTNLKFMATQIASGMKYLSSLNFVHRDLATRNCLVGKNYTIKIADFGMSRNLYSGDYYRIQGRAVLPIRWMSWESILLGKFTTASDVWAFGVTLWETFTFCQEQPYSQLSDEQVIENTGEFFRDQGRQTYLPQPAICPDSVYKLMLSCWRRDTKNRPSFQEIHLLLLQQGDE

[5] = target: Tyrosine-protein kinase FRK (Homo sapiens) (UniProt P42685); experiment: Binding affinity to human FRK (215 to 503 residues) expressed in mammalian expression system at 1 uM by kinome scan assay relative to control
Tyrosine-protein kinase FRK (Homo sapiens), sequence (P42685 whole entry, the tested form may be a part): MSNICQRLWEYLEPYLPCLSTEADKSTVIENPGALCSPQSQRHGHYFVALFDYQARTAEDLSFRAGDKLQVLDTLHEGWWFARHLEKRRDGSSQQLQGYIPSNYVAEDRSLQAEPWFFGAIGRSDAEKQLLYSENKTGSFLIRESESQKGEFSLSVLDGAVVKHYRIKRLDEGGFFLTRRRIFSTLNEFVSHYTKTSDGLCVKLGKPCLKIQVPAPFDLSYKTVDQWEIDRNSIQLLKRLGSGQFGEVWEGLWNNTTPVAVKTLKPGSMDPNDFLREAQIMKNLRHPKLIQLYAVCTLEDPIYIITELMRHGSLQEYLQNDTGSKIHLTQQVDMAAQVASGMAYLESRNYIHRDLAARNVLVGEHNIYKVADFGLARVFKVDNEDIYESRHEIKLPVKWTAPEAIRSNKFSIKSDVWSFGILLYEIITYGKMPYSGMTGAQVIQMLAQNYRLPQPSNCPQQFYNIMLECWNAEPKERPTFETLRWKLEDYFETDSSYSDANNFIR

[6] = Cmax in dog at 1 mg/kg, po; type: ADME, organism-based, Canis lupus familiaris; design: dose 1 mg/kg, route oral; settings: in vivo
[7] = AUC (infinity) in mouse at 3 mg/kg, po; type: ADME, organism-based; design: dose 3 mg/kg, route oral, time infinity; settings: in vivo
[8] = AUC (infinity) in dog at 1 mg/kg, po; type: ADME, organism-based, Canis lupus familiaris; design: dose 1 mg/kg, time infinity, route oral; settings: in vivo
[9] = Clearance in mouse at 1 mg/kg, iv or 3 mg/kg, po; type: ADME, organism-based; settings: in vivo
[10] = Clearance in dog at 0.3 mg/kg, iv or 1 mg/kg, po; type: ADME, organism-based, Canis lupus familiaris; settings: in vivo
[11] = Volume of distribution at steady state in mouse at 1 mg/kg, iv or 3 mg/kg, po; type: ADME, organism-based; settings: in vivo, read-out: Vdss
[12] = Volume of distribution at steady state in rat at 3 mg/kg, iv or 10 mg/kg, po; type: ADME, organism-based; settings: in vivo, read-out: Vdss
[13] = Volume of distribution at steady state in dog at 0.3 mg/kg, iv or 1 mg/kg, po; type: ADME, organism-based, Canis lupus familiaris; settings: in vivo, read-out: Vdss
[14] = Oral bioavailability in mouse at 3 mg/kg; type: ADME, organism-based; settings: in vivo
[15] = Metabolic stability in mouse plasma after 3 hrs; type: ADME, cell-free; settings: read-out: Stability
[16] = Metabolic stability in dog plasma after 3 hrs; type: ADME, cell-free, Canis lupus familiaris; settings: read-out: Stability
[17] = Metabolic stability in human plasma after 3 hrs; type: ADME, cell-free; settings: read-out: Stability
[18] = Protein binding in rat plasma; type: ADME, cell-free; settings: read-out: PPB (converted)
[19] = Protein binding in mouse plasma; type: ADME, cell-free; settings: read-out: PPB (converted)
[20] = Protein binding in dog plasma; type: ADME, cell-free, Canis lupus familiaris; settings: read-out: PPB (converted)
[21] = system: Mus musculus; experiment: In vivo inhibition of ERK phosphorylation at Thr202/Tyr204 and Thr185/Tyr187 in po dosed mouse xenografted with human Calu6 cells administered as single dose measured after 1 to 24 hrs post dose; type: functional, organism-based
[22] = system: Plasma; experiment: Plasma concentration in po dosed mouse xenografted with human Calu6 cells administered as single dose measured after 1 to 24 hrs post dose by LC-MS analysis; type: ADME, organism-based; settings: in vivo
[23] = system: Plasma; experiment: Plasma concentration in mouse xenografted with human Calu6 cells at 10 mg/kg, po administered as single dose measured at 24 hrs post dose by LC-MS analysis; type: ADME, organism-based; settings: in vivo, BLD = below limit of detection
[24] = system: Mus musculus; experiment: In vivo inhibition of ERK1/2 phosphorylation at Thr202/Tyr204 and Thr185/Tyr187 in mouse xenografted with human Calu6 cells at 200 mg/kg, po administered as single dose measured up to 24 hrs post dose; type: functional; settings: Calu-6, po
[25] = system: Calu-6; experiment: Antitumor activity against human Calu6 cells xenografted in nude mouse assessed as effect on tumor volume at 10 mg/kg/day, po administered for 15 days starting on day 12 post tumor implantation measured on day 27 relative to control; type: functional
[26] = system: Calu-6; experiment: Antitumor activity against human Calu6 cells xenografted in nude mouse assessed as effect on tumor volume at 30 mg/kg/day, po administered for 15 days starting on day 12 post tumor implantation measured on day 27 relative to control; type: functional
[27] = system: Calu-6; experiment: Antitumor activity against human Calu6 cells xenografted in nude mouse assessed as tumor regression at 200 mg/kg/day, po administered for 15 days starting on day 12 post tumor implantation measured on day 27 relative to control; type: functional
[28] = system: Mus musculus; experiment: Toxicity in nude mouse xenografted with human Calu6 cells assessed as body weight loss at 10 to 200 mg/kg/day, po administered for 15 days starting on day 12 post tumor implantation measured twice per week of compound dosing; type: organism-based; settings: in vivo, 360 h
[29] = target: T1, Serine/threonine-protein kinase B-raf; experiment: Inhibition of full-length BRAF (unknown origin)
[30] = system: Mus musculus; experiment: Time during which free plasma concentration exceeds cellular in vitro EC50 for CRAF-mediated ERK phosphorylation in mouse xenografted with human Calu6 cells at 200 mg/kg, po administered as single dose
[31] = system: Mus musculus; experiment: Toxicity in nude mouse xenografted with human PC3 cells assessed as body weight loss at 200 mg/kg/day, po administered from day 12 until day 25 post tumor implantation measured twice per week of compound dosing; type: organism-based; settings: in vivo
[32] = system: Mus musculus; experiment: Toxicity in nude mouse xenografted with human PC3 cells assessed as mortality at 200 mg/kg/day, po administered from day 12 until day 25 post tumor implantation; type: organism-based; settings: in vivo
[33] = system: RAF proto-oncogene serine/threonine-protein kinase (Homo sapiens), P04049 [Y340E,Y341E]

## Cc1ncc(NC(=O)c2cccc(C(F)(F)F)c2)cc1-c1cnc(OC2CCOCC2)c(N2CCOCC2)c1
[1]
  Papp A→B: 150 nm/s
[2]
  Activity: > 99%
[3]
  Activity: > 99%
[4]
  Activity: 86%
[5]
  Activity: 92%
[6]
  Cmax: 0.5 µM
[7]
  AUC(0-inf): 1700 nM·h
[8]
  AUC(0-inf): 1000 nM·h
[9]
  clearance: 2.1 L/h/kg
[10]
  clearance: 0.84 L/h/kg
[11]
  Vd: 1.2 L/kg
[12]
  Vd: 3.5 L/kg
[13]
  Vd: 3.1 L/kg
[14]
  bioavailability: 68%
[15]
  remaining at 3 h: 82%
[16]
  remaining at 3 h: 95%
[17]
  remaining at 3 h: 101%
[18]
  fraction unbound: 0.02
[19]
  fraction unbound: 0.02
[20]
  fraction unbound: 0.02
[21]
  inhibition: Dose-dependent effect
[22]
  Drug uptake: Dose-dependent effect
[23]
  Cp: Bld
[24]
  inhibition in vivo at 200 mg/kg: ≥ 70%
[25]
  T/C: 92%
[26]
  T/C: 46%
[27]
  Activity: 92%
[28]
  Activity: Non-Toxic
[29]
  IC50: 0.4 nM
[30]
  Time: 24 h
[31]
  Activity: Non-Toxic
[32]
  Activity: Non-Toxic
[33]
  T1/2: > 6.5 h
